Source: patent publication US20090208620A1, “Alimentary Compositions and Methods For Metabolic Modulation” (VDF FUTURECEUTICALS, INC., priority 2003, published 2009)
Values joined by “and” are separate entries in the source; they are usually repeats but may differ in a detail not shown here. Equal values may be shown once.

Tests used:
Type in all cases: cell-based, mouse
activated Akt = test: Western immunoblot for activated (phospho-Ser473) Akt in muscle cells; conditions: for FOLD AKT ACTIVATION (OVER CONTROL): cells treated 30 minutes at 37° C
Description: (§1) The levels of Glut-4, activated AMPK and activated Akt were measured in mouse muscle cells C2C12 (from ATTC) and in primary culture of human skeletal muscle cells (Clonetics, Inc.) using Western immunoblotting. C2C12 cells were plated at 1.5×1-exp5 cells per mL/well (12-well plate) in standard cell culture medium (DMEM supplemented with 10% fetal bovine serum (FBS), 25 mM glucose, 20 mM Hepes, 4 mM glutamine and 2 mM sodium pyruvate. 48 hrs after the plating, medium was changed to differentiation medium (DMEM supplemented with 5 mM of glucose and 0.5% of FBS) for next 3-4 days to stimulate the formation of myotubes. Three hours before the treatment with selected agents, cells were washed with PBS and transferred to PBS supplemented with 5 mM of glucose.
(§2) Human skeletal muscle cells (HSKM) were cultured in SKBM-2 mediums provided by Clonetics. 48 hrs after cell plating, medium was changed to SKBM medium to stimulate differentiation of the cells to myotubes. When differentiated, the myotubes were transferred to PBS supplemented with 5 mM glucose for three hrs before the treatment.
(§3) Analysis of C2C12 cells for the level of activated AMPK, Akt and the level of GLUT-4 was performed in the same experimental system. The cells were treated for 30 minutes at 37° C. […] Subsequently, 20 μg per sample of sample protein was used for Western analysis using NuPage 10% Bis/Tris gels (Invitrogen). After exposure of membranes to primary and secondary antibodies AMPK, AKT or Glut-4 was detected using ECL-Plus (Amersham) following producer's instruction. Chemilumiscent signals were detected by using ChemiDoc system from Biorad. Intensity of detected signals were analyzed and measured using Quantity One software (Biorad). Alternatively, the level of phosphorylated AMPK was detected using ECL kit from Amersham and short exposure to Kodak films.
(§4) Experimental setup: Cell Culture was followed by treatment with selected contemplated compounds, which was followed by cell lysis and western blot analysis for AMPK, Akt, GLUT4, total AMPK, and total Akt. Signals were acquired accordingly.

activated AMPK = test: Western immunoblot for activated (phospho-Thr172) AMPK in muscle cells; conditions: for FOLD AMPK ACTIVATION (OVER CONTROL): cells treated 30 minutes at 37° C
Description: as §1, §2, §3, §4

GLUT-4 = test: Western immunoblot for GLUT-4 protein level in C2C12 cells; conditions: 2000 microM
Description: as §1
Analysis of C2C12 cells for the level of activated AMPK, Akt and the level of GLUT-4 was performed in the same experimental system. The cells were treated for 30 minutes at 37° C. After the treatment, the cells were washed with ice-cold PBS and lysed with 80 μl of lysis buffer/well (M-PER buffer from Pierce supplemented with protease and phosphatase inhibitor mix (Calbiochem) for 10 minutes on ice. Next, the plates were transferred to −20° C. to improve the lysis of the cells. Next cells were sonicated for 5 minutes and lysate was transferred to Eppendorf tubes and centrifuged at 14,000 rpm for 10 minutes. Supernatants were collected in fresh Eppendorf tubes and kept on ice to measure the amount of total proteins. 3 μl of each lysate was used to measure the protein concentration using standard Bradford method (Biorad). Subsequently, 20 μg per sample of sample protein was used for Western analysis using NuPage 10% Bis/Tris gels (Invitrogen). After exposure of membranes to primary and secondary antibodies AMPK, AKT or Glut-4 was detected using ECL-Plus (Amersham) following producer's instruction. Chemilumiscent signals were detected by using ChemiDoc system from Biorad. Intensity of detected signals were analyzed and measured using Quantity One software (Biorad). Alternatively, the level of phosphorylated AMPK was detected using ECL kit from Amersham and short exposure to Kodak films.
Experimental setup: Cell Culture was followed by treatment with selected contemplated compounds, which was followed by cell lysis and western blot analysis for AMPK, Akt, GLUT4, total AMPK, and total Akt. Signals were acquired accordingly. Primary antibodies used in these studies are the following: Anti-phospho-AMPK (Thr172), mouse, rabbit IgG, from Cell Signaling, #2531; Anti-phospho-Akt (Ser473), mouse, rabbit IgG, Cell Signaling, #9271; Anti-Glut-4, mouse, rabbit IgG, Calbiochem, #400064; Anti-AMPK (total), mouse, rabbit IgG, Cell Signaling, #2532; Anti-Akt (total), mouse, rabbit IgG, Cell Signaling, #9272.
The effects of kinetin, N^2-Acetyl-Guanosine and N^2-Acetyl-Guanine on GLUT-4 protein level in C2C12 cells were investigated following the same experimental design as described for AMPK and AKT. Anti-Glut-4 antibody used in this study was from Calbiochem. […] Table 3 refers to multiple independent experiments where multiple identical concentrations for the same reagents are indicated.

## NC(=O)c1ncn([C@@H]2O[C@H](CO)[C@@H](O)[C@H]2O)c1N [AICAR, reference compound]
Activated Akt; 50.0 microM
  FOLD AKT ACTIVATION (OVER CONTROL): 2.20 fold
Activated Akt; 500.0 microM
  FOLD AKT ACTIVATION (OVER CONTROL): 5.45 fold

## Nc1ncnc2c1ncn2[C@@H]1O[C@H](CO)[C@@H](O)[C@H]1O [Adenosine]
Activated AMPK; 2.5 microM
  FOLD AMPK ACTIVATION (OVER CONTROL): 1.87 fold
Activated AMPK; 5.0 microM
  FOLD AMPK ACTIVATION (OVER CONTROL): 1.64 fold
Activated AMPK; 12.5 microM
  FOLD AMPK ACTIVATION (OVER CONTROL): 1.83 fold

## c1ccc(CNc2ncnc3nc[nH]c23)cc1 [Benzyl-Adenine]
Activated AMPK; 0.5 microM
  FOLD AMPK ACTIVATION (OVER CONTROL): 2.18 fold
Activated AMPK; 5.0 microM
  FOLD AMPK ACTIVATION (OVER CONTROL): 2.70 fold
Activated AMPK; 50.0 microM
  FOLD AMPK ACTIVATION (OVER CONTROL): 2.92 fold

## CC(C)=CCNc1ncnc2nc[nH]c12 [Gamma, Gamma-Dimethylally-6-Aminopurine]
Activated Akt; 0.8 microM
  FOLD AKT ACTIVATION (OVER CONTROL): 1.90 fold and 3.56 fold
Activated Akt; 2.0 microM
  FOLD AKT ACTIVATION (OVER CONTROL): 1.32 fold
Activated AMPK; 0.5 microM
  FOLD AMPK ACTIVATION (OVER CONTROL): 2.82 fold
Activated AMPK; 5.0 microM
  FOLD AMPK ACTIVATION (OVER CONTROL): 2.45 fold
Activated AMPK; 50.0 microM
  FOLD AMPK ACTIVATION (OVER CONTROL): 2.11 fold

## Nc1nc2c(ncn2[C@@H]2O[C@H](CO)[C@@H](O)[C@H]2O)c(=O)[nH]1 [Guanosine]
Activated Akt; no concentration stated
  effect on Akt activity (in words): potent activators of AMPK as well as Akt
Activated AMPK; 5.0 microM
  FOLD AMPK ACTIVATION (OVER CONTROL): 3.70 fold
Activated AMPK; no concentration stated
  effect on AMPK activity (in words): potent activators of AMPK

## OC[C@H]1O[C@@H](n2cnc3c(NCc4ccco4)ncnc32)[C@H](O)[C@@H]1O [Kinetin Riboside]
Activated Akt; 0.8 microM
  FOLD AKT ACTIVATION (OVER CONTROL): 3.71 fold
Activated Akt; 2.0 microM
  FOLD AKT ACTIVATION (OVER CONTROL): 5.14 fold
Activated Akt; 5.0 microM
  FOLD AKT ACTIVATION (OVER CONTROL): 3.32 fold
Activated AMPK; 3.0 microM
  FOLD AMPK ACTIVATION (OVER CONTROL): 12.00 fold

## CN(C)C(=N)N=C(N)N [Metformin, reference compound]
Activated Akt; 2.0 milliM
  FOLD AKT ACTIVATION (OVER CONTROL): 2.70 fold
Activated AMPK; 2.0 milliM
  FOLD AMPK ACTIVATION (OVER CONTROL): 1.42 fold
GLUT-4
  FOLD CHANGE IN GLUT-4 LEVEL (OVER CONTROL): 1.50 fold
